In one experiment the target is MDM2 (Homo sapiens, UniProt Q00987). In words: Competitive fluorescence polarization assay for MDM2. Type of experiment: binding. Particulars: competitive FP assay, MDM2; for IC50: read-out: IC50 (MDM2); for Ki: read-out: Ki (MDM2).
A further experiment deals with T1, MDMX (Homo sapiens, UniProt O15151).
T1 sequence (O15151 1-125): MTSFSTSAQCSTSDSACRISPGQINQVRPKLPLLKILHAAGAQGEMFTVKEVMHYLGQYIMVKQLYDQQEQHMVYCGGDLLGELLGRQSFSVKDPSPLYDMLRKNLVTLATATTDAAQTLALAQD
In words: Competitive fluorescence polarization assay for MDMX. Type of experiment: binding. Particulars: competitive FP assay; for IC50: read-out: IC50 (MDMX); for Ki: read-out: Ki (MDMX). For orientation: In fluorescence polarisation assays a small probe gives low polarisation when free and higher when bound to something large.

Where a SMILES comes first, the peptide text is derived from it. Bridges are numbered along the chain shown (N, C = ends). [ ]: non-standard residue; d: D form. Trp(6-Cl) = N[C@@H](Cc1c[nH]c2cc(Cl)ccc12)C(=O)O; Phe(4-COOH) = N[C@@H](Cc1ccc(C(=O)O)cc1)C(=O)O; Phe(3,4-F2) = N[C@@H](Cc1ccc(F)c(F)c1)C(=O)O; R8 = C=CCCCCCC[C@@](C)(N)C(=O)O; Cba = N[C@@H](CC1CCC1)C(=O)O; S5 = C=CCCC[C@](C)(N)C(=O)O A value given as a limit tells only on which side of the number the result lay.

In general, IC50 refers to the concentration that gives 50% inhibition. As usually defined, the Ki is the dissociation constant of the complex between target and ligand, obtained from inhibition or displacement.

Sequence of MDM2 (Q00987 1-125): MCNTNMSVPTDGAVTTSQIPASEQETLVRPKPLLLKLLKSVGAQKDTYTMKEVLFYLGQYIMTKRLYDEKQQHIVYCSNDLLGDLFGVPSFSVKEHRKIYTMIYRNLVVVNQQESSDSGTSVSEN

For `CC(=O)N[C@@H](CC(C)C)C(=O)N[C@H](C(=O)N[C@@H](Cc1ccccc1)C(=O)N[C@]1(C)CCCCCCC=CCCC[C@@](C)(C(=O)N[C@@H](CO)C(=O)N[C@@H](C)C(=O)N[C@@H](Cc2ccccc2)C(=O)N[C@H](C)C(N)=O)NC(=O)[C@H](CC2CCC2)NC(=O)[C@H](CCC(N)=O)NC(=O)[C@H](C)NC(=O)[C@H](Cc2c[nH]c3ccccc23)NC(=O)[C@H](Cc2ccc(O)cc2)NC(=O)[C@H](CCC(=O)O)NC1=O)[C@@H](C)O` [compound 257] (Ac-LTF[R8]EYWAQ[Cba][S5]SAF[dA]-NH2; staple 4-11), the IC50 on MDM2 and at MDMX was 10 to 100 nM in each case. The results for the Ki at MDM2 and on MDMX were below 10 nM and 10 to 100 nM, respectively.
As to `CC(=O)N[C@@H](CC(C)C)C(=O)N[C@H](C(=O)N[C@@H](Cc1ccccc1)C(=O)N[C@]1(C)CCCCCCC=CCCC[C@@](C)(C(=O)N[C@@H](CO)C(=O)N[C@@H](C)C(=O)N[C@@H](Cc2ccccc2)C(N)=O)NC(=O)[C@H](CC2CCC2)NC(=O)[C@H](CCC(N)=O)NC(=O)[C@H](C)NC(=O)[C@H](Cc2c[nH]c3ccccc23)NC(=O)[C@H](Cc2ccc(O)cc2)NC(=O)[C@H](C)NC1=O)[C@@H](C)O` [compound 258] (Ac-LTF[R8]AYWAQ[Cba][S5]SAF-NH2; staple 4-11), at MDM2, the IC50 lay in the range of 10 to 100 nM and the Ki was below 10 nM. Also, on MDMX, the IC50 fell in the range of 100 to 1000 nM and the Ki fell in the range of 10 to 100 nM.
On to `CC(=O)N[C@@H](CC(C)C)C(=O)N[C@H](C(=O)N[C@@H](Cc1ccc(F)c(F)c1)C(=O)N[C@]1(C)CCCCCCC=CCCC[C@@](C)(C(=O)N[C@@H](CO)C(=O)N[C@@H](C)C(=O)N[C@@H](Cc2ccccc2)C(N)=O)NC(=O)[C@H](CC2CCC2)NC(=O)[C@H](CCC(N)=O)NC(=O)[C@H](C)NC(=O)[C@H](Cc2c[nH]c3ccccc23)NC(=O)[C@H](Cc2ccc(O)cc2)NC(=O)[C@H](C)NC1=O)[C@@H](C)O` [compound 259] (Ac-LT[Phe(3,4-F2)][R8]AYWAQ[Cba][S5]SAF-NH2; staple 4-11), for which the IC50 on MDM2 and on MDMX was 10 to 100 nM in each case. The Ki on MDM2 was below 10 nM; at MDMX it was 10 to 100 nM.
Take `CC(=O)N[C@@H](CC(C)C)C(=O)N[C@H](C(=O)N[C@@H](Cc1ccccc1)C(=O)N[C@]1(C)CCCCCCC=CCCC[C@@](C)(C(=O)N[C@@H](CO)C(=O)N[C@@H](C)C(=O)N[C@@H](Cc2ccccc2)C(N)=O)NC(=O)[C@H](CC2CCC2)NC(=O)[C@H](CCC(N)=O)NC(=O)[C@H](C)NC(=O)[C@H](Cc2c[nH]c3ccccc23)NC(=O)[C@H](Cc2ccc(C(=O)O)cc2)NC(=O)[C@H](C)NC1=O)[C@@H](C)O` [compound 260] (Ac-LTF[R8]A[Phe(4-COOH)]WAQ[Cba][S5]SAF-NH2; staple 4-11): on MDM2, the IC50 fell in the range of 10 to 100 nM and the Ki was below 10 nM. On MDMX, the IC50 is 10 to 100 nM and the Ki was 10 to 100 nM.
As for `CC(=O)N[C@@H](CC(C)C)C(=O)N[C@H](C(=O)N[C@@H](Cc1ccccc1)C(=O)N[C@]1(C)CCCCCCC=CCCC[C@@](C)(C(=O)N[C@@H](CO)C(=O)N[C@@H](C)C(=O)N[C@@H](Cc2ccccc2)C(N)=O)NC(=O)[C@H](CC2CCC2)NC(=O)[C@H](CCC(N)=O)NC(=O)[C@H](C)NC(=O)[C@H](Cc2c[nH]c3cc(Cl)ccc23)NC(=O)[C@H](Cc2ccc(O)cc2)NC(=O)[C@H](CCC(=O)O)NC1=O)[C@@H](C)O` [compound 261] (Ac-LTF[R8]EY[Trp(6-Cl)]AQ[Cba][S5]SAF-NH2; staple 4-11), the IC50 on MDM2 was in the range of 10 to 100 nM; at MDMX it was 100 to 1000 nM. Besides, the Ki at MDM2 was below 10 nM; on MDMX it was 10 to 100 nM.
Regarding `CC(=O)N[C@@H](CC(C)C)C(=O)N[C@H](C(=O)N[C@@H](Cc1ccccc1)C(=O)N[C@]1(C)CCCCCCC=CCCC[C@@](C)(C(=O)N[C@@H](CO)C(=O)N[C@@H](C)C(=O)N[C@@H](Cc2ccccc2)C(N)=O)NC(=O)[C@H](CC2CCC2)NC(=O)[C@H](CCC(N)=O)NC(=O)[C@H](CO)NC(=O)[C@H](Cc2c[nH]c3ccccc23)NC(=O)[C@H](Cc2ccc(O)cc2)NC(=O)[C@H](C)NC1=O)[C@@H](C)O` [compound 262] (Ac-LTF[R8]AYWSQ[Cba][S5]SAF-NH2; staple 4-11), at MDM2, the IC50 fell in the range of 10 to 100 nM and the Ki is below 10 nM. Besides, on MDMX, the half-inhibitory concentration (IC50) was in the range of 100 to 1000 nM and the Ki lay in the range of 10 to 100 nM.
For the compound `CC(=O)N[C@@H](CC(C)C)C(=O)N[C@H](C(=O)N[C@@H](Cc1ccccc1)C(=O)N[C@]1(C)CCCCCCC=CCCC[C@@](C)(C(=O)N[C@@H](CO)C(=O)N[C@@H](C)C(=O)N[C@@H](Cc2ccccc2)C(N)=O)NC(=O)[C@H](CC2CCC2)NC(=O)[C@H](CCC(N)=O)NC(=O)[C@H](Cc2c[nH]c3ccccc23)NC(=O)[C@H](Cc2c[nH]c3ccccc23)NC(=O)[C@H](Cc2ccc(O)cc2)NC(=O)[C@H](C)NC1=O)[C@@H](C)O` [compound 263] (Ac-LTF[R8]AYWWQ[Cba][S5]SAF-NH2; staple 4-11), on MDM2, the IC50 fell in the range of 10 to 100 nM and the Ki was below 10 nM. Moreover, on MDMX, the IC50 was 100 to 1000 nM and the Ki fell in the range of 10 to 100 nM.
For `CC[C@H](C)[C@H](NC(=O)[C@H](C)NC(=O)[C@H](C)NC(=O)[C@]1(C)CCCC=CCCCCCC[C@@](C)(NC(=O)[C@H](Cc2ccccc2)NC(=O)[C@@H](NC(=O)[C@H](CC(C)C)NC(C)=O)[C@@H](C)O)C(=O)N[C@@H](C)C(=O)N[C@@H](Cc2ccc(O)cc2)C(=O)N[C@@H](Cc2c[nH]c3ccccc23)C(=O)N[C@@H](C)C(=O)N[C@@H](CCC(N)=O)C(=O)N[C@@H](CC2CCC2)C(=O)N1)C(=O)N[C@H](C)C(N)=O` [compound 264] (Ac-LTF[R8]AYWAQ[Cba][S5]AAI[dA]-NH2; staple 4-11), on MDM2, the IC50 lay within 10 to 100 nM and the Ki was below 10 nM. Moreover, at MDMX, the IC50 was in the range of 10 to 100 nM and the Ki was in the range of 10 to 100 nM.
With `CC[C@H](C)[C@H](NC(=O)[C@H](C)NC(=O)[C@H](C)NC(=O)[C@]1(C)CCCC=CCCCCCC[C@@](C)(NC(=O)[C@H](Cc2ccccc2)NC(=O)[C@@H](NC(=O)[C@H](CC(C)C)NC(C)=O)[C@@H](C)O)C(=O)N[C@@H](C)C(=O)N[C@@H](Cc2ccc(O)cc2)C(=O)N[C@@H](Cc2c[nH]c3cc(Cl)ccc23)C(=O)N[C@@H](C)C(=O)N[C@@H](CCC(N)=O)C(=O)N[C@@H](CC2CCC2)C(=O)N1)C(=O)N[C@H](C)C(N)=O` [compound 266] (Ac-LTF[R8]AY[Trp(6-Cl)]AQ[Cba][S5]AAI[dA]-NH2; staple 4-11), at MDM2, the IC50 was in the range of 10 to 100 nM and the Ki was below 10 nM. At MDMX, the IC50 was 100 to 1000 nM and the Ki lay in the range of 10 to 100 nM.
`CC[C@H](C)[C@H](NC(=O)[C@H](C)NC(=O)[C@H](C)NC(=O)[C@]1(C)CCCC=CCCCCCC[C@@](C)(NC(=O)[C@H](Cc2ccccc2)NC(=O)[C@@H](NC(=O)[C@H](CC(C)C)NC(C)=O)[C@@H](C)O)C(=O)N[C@@H](C)C(=O)N[C@@H](Cc2ccc(C(=O)O)cc2)C(=O)N[C@@H](Cc2c[nH]c3ccccc23)C(=O)N[C@@H](C)C(=O)N[C@@H](CCC(N)=O)C(=O)N[C@@H](CC2CCC2)C(=O)N1)C(=O)N[C@H](C)C(N)=O` [compound 267] (Ac-LTF[R8]A[Phe(4-COOH)]WAQ[Cba][S5]AAI[dA]-NH2; staple 4-11): at MDM2, the IC50 is 10 to 100 nM and the Ki was below 10 nM. In addition, at MDMX, the IC50 was in the range of 10 to 100 nM and the Ki is below 10 nM.
